Data as given in ChEMBL document CHEMBL3885881, “DrugMatrix”.

Species on record: Rattus norvegicus
Assay: DrugMatrix - Regimen: Daily Repeat
Type: toxicity, organism-based, Sprague-Dawley
Parameters: regimen Daily Repeat, gender Male, age 6-8 weeks
Conditions: in vivo, sc, 0 mg/kg, route mini-PUMP - SUBCUTANEOUS, dose level Control, vehicle 100 % SALINE; for ABSOLUTE BASOPHIL / ABSOLUTE EOSINOPHIL / ABSOLUTE LYMPHOCYTE / ABSOLUTE MONOCYTE / ABSOLUTE SEGMENTED NEUTROPHIL / BASOPHIL / EOSINOPHIL / ERYTHROCYTE COUNT / HEMATOCRIT / HEMOGLOBIN / LEUKOCYTE COUNT / LYMPHOCYTE / MEAN CORPUSCULAR HEMOGLOBIN / MEAN CORPUSCULAR HEMOGLOBIN CONCENTRATION / MEAN CORPUSCULAR VOLUME / MONOCYTE / NEUTROPHIL / NUCLEATED RED BLOOD CELLS / PLATELET COUNT: tissue Blood; for ALANINE AMINOTRANSFERASE / ALBUMIN / ALKALINE PHOSPHATASE / ASPARTATE AMINOTRANSFERASE / BLOOD UREA NITROGEN / CARBON DIOXIDE / CHLORIDE / CHOLESTEROL / CREATININE / GLUCOSE / LACTATE DEHYDROGENASE / LIPASE / PHOSPHORUS / POTASSIUM / SODIUM / TOTAL BILIRUBIN / TOTAL PROTEIN / URIC ACID: tissue Plasma

CNC[C@H](O)c1cccc(O)c1 [PHENYLEPHRINE]
ABSOLUTE BASOPHIL (72 h, time 3 day): 0 CELLS/uL
ABSOLUTE EOSINOPHIL (72 h, time 3 day): 77.17 CELLS/uL
ABSOLUTE LYMPHOCYTE (72 h, time 3 day): 14293.83 CELLS/uL
ABSOLUTE MONOCYTE (72 h, time 3 day): 354 CELLS/uL
ABSOLUTE SEGMENTED NEUTROPHIL (72 h, time 3 day): 1658.33 CELLS/uL
BASOPHIL (72 h, time 3 day): 0%
EOSINOPHIL (72 h, time 3 day): 0.5%
ERYTHROCYTE COUNT (72 h, time 3 day): 6.27 x10E6/uL
HEMATOCRIT (72 h, time 3 day): 36.95%
HEMOGLOBIN (72 h, time 3 day): 13.4 G/DL
LEUKOCYTE COUNT (72 h, time 3 day): 16.38 x10E3/uL
LYMPHOCYTE (72 h, time 3 day): 87.17%
MEAN CORPUSCULAR HEMOGLOBIN (72 h, time 3 day): 21.42 pg
MEAN CORPUSCULAR HEMOGLOBIN CONCENTRATION (72 h, time 3 day): 36.27 G/DL
MEAN CORPUSCULAR VOLUME (72 h, time 3 day): 59.03 fL
MONOCYTE (72 h, time 3 day): 2%
NEUTROPHIL (72 h, time 3 day): 10.33%
NUCLEATED RED BLOOD CELLS (72 h, time 3 day): 0 /100WBC
PLATELET COUNT (72 h, time 3 day): 904.67 x10E3/uL
ALANINE AMINOTRANSFERASE (72 h, time 3 day): 48.33 u/L
ALBUMIN (72 h, time 3 day): 3.82 G/DL
ALKALINE PHOSPHATASE (72 h, time 3 day): 282.33 u/L
ASPARTATE AMINOTRANSFERASE (72 h, time 3 day): 86.83 u/L
BLOOD UREA NITROGEN (72 h, time 3 day): 20.17 mg/dL
CARBON DIOXIDE (72 h, time 3 day): 34.67 mmol/L
CHLORIDE (72 h, time 3 day): 102 MEQ/L
CHOLESTEROL (72 h, time 3 day): 71.5 mg/dL
CREATININE (72 h, time 3 day): 0.2 mg/dL
GLUCOSE (72 h, time 3 day): 136.83 mg/dL
LACTATE DEHYDROGENASE (72 h, time 3 day): 159 u/L
LIPASE (72 h, time 3 day): 9 u/L
PHOSPHORUS (72 h, time 3 day): 10.12 mg/dL
POTASSIUM (72 h, time 3 day): 5.92 MEQ/L
SODIUM (72 h, time 3 day): 147.8 MEQ/L
TOTAL BILIRUBIN (72 h, time 3 day): 0.2 mg/dL
TOTAL PROTEIN (72 h, time 3 day): 6.05 G/DL
URIC ACID (72 h, time 3 day): 1.4 mg/dL
ABSOLUTE BASOPHIL (120 h, time 5 day): 0 CELLS/uL
ABSOLUTE EOSINOPHIL (120 h, time 5 day): 0 CELLS/uL
ABSOLUTE LYMPHOCYTE (120 h, time 5 day): 14257.33 CELLS/uL
ABSOLUTE MONOCYTE (120 h, time 5 day): 326 CELLS/uL
ABSOLUTE SEGMENTED NEUTROPHIL (120 h, time 5 day): 3216.67 CELLS/uL
BASOPHIL (120 h, time 5 day): 0%
EOSINOPHIL (120 h, time 5 day): 0%
ERYTHROCYTE COUNT (120 h, time 5 day): 6.11 x10E6/uL
HEMATOCRIT (120 h, time 5 day): 36.22%
HEMOGLOBIN (120 h, time 5 day): 13.18 G/DL
LEUKOCYTE COUNT (120 h, time 5 day): 17.8 x10E3/uL
LYMPHOCYTE (120 h, time 5 day): 80.5%
MEAN CORPUSCULAR HEMOGLOBIN (120 h, time 5 day): 21.62 pg
MEAN CORPUSCULAR HEMOGLOBIN CONCENTRATION (120 h, time 5 day): 36.42 G/DL
MEAN CORPUSCULAR VOLUME (120 h, time 5 day): 59.37 fL
MONOCYTE (120 h, time 5 day): 1.83%
NEUTROPHIL (120 h, time 5 day): 17.67%
NUCLEATED RED BLOOD CELLS (120 h, time 5 day): 0 /100WBC
PLATELET COUNT (120 h, time 5 day): 1311 x10E3/uL
ALANINE AMINOTRANSFERASE (120 h, time 5 day): 47 u/L
ALBUMIN (120 h, time 5 day): 3.83 G/DL
ALKALINE PHOSPHATASE (120 h, time 5 day): 260.33 u/L
ASPARTATE AMINOTRANSFERASE (120 h, time 5 day): 76.17 u/L
BLOOD UREA NITROGEN (120 h, time 5 day): 14.67 mg/dL
CARBON DIOXIDE (120 h, time 5 day): 31.33 mmol/L
CHLORIDE (120 h, time 5 day): 101.17 MEQ/L
CHOLESTEROL (120 h, time 5 day): 75 mg/dL
CREATININE (120 h, time 5 day): 0.16 mg/dL
GLUCOSE (120 h, time 5 day): 152.67 mg/dL
LACTATE DEHYDROGENASE (120 h, time 5 day): 147.33 u/L
LIPASE (120 h, time 5 day): 9.33 u/L
PHOSPHORUS (120 h, time 5 day): 10.97 mg/dL
POTASSIUM (120 h, time 5 day): 6 MEQ/L
SODIUM (120 h, time 5 day): 145.52 MEQ/L
TOTAL BILIRUBIN (120 h, time 5 day): 0.17 mg/dL
TOTAL PROTEIN (120 h, time 5 day): 5.83 G/DL
URIC ACID (120 h, time 5 day): 1.27 mg/dL
ABSOLUTE BASOPHIL ([…], time 14 day): 0 CELLS/uL
ABSOLUTE EOSINOPHIL ([…], time 14 day): 64.5 CELLS/uL
ABSOLUTE LYMPHOCYTE ([…], time 14 day): 12507.83 CELLS/uL
ABSOLUTE MONOCYTE ([…], time 14 day): 380.33 CELLS/uL
ABSOLUTE SEGMENTED NEUTROPHIL ([…], time 14 day): 2414 CELLS/uL
BASOPHIL ([…], time 14 day): 0%
EOSINOPHIL ([…], time 14 day): 0.5%
ERYTHROCYTE COUNT ([…], time 14 day): 6.1 x10E6/uL
HEMATOCRIT ([…], time 14 day): 35.4%
HEMOGLOBIN ([…], time 14 day): 12.88 G/DL
LEUKOCYTE COUNT ([…], time 14 day): 15.37 x10E3/uL
LYMPHOCYTE ([…], time 14 day): 80.83%
MEAN CORPUSCULAR HEMOGLOBIN ([…], time 14 day): 21.18 pg
MEAN CORPUSCULAR HEMOGLOBIN CONCENTRATION ([…], time 14 day): 36.43 G/DL
MEAN CORPUSCULAR VOLUME ([…], time 14 day): 58.17 fL
MONOCYTE ([…], time 14 day): 2.17%
NEUTROPHIL ([…], time 14 day): 16.5%
NUCLEATED RED BLOOD CELLS ([…], time 14 day): 0.17 /100WBC
PLATELET COUNT ([…], time 14 day): 1016 x10E3/uL
ALANINE AMINOTRANSFERASE ([…], time 14 day): 53.33 u/L
ALBUMIN ([…], time 14 day): 3.93 G/DL
ALKALINE PHOSPHATASE ([…], time 14 day): 319.83 u/L
ASPARTATE AMINOTRANSFERASE ([…], time 14 day): 84 u/L
BLOOD UREA NITROGEN ([…], time 14 day): 15.5 mg/dL
CARBON DIOXIDE ([…], time 14 day): 34 mmol/L
CHLORIDE ([…], time 14 day): 101.83 MEQ/L
CHOLESTEROL ([…], time 14 day): 57 mg/dL
CREATININE ([…], time 14 day): 0.21 mg/dL
GLUCOSE ([…], time 14 day): 182.33 mg/dL
LACTATE DEHYDROGENASE ([…], time 14 day): 104.67 u/L
LIPASE ([…], time 14 day): 9.17 u/L
PHOSPHORUS ([…], time 14 day): 11.12 mg/dL
POTASSIUM ([…], time 14 day): 5.81 MEQ/L
SODIUM ([…], time 14 day): 144.85 MEQ/L
TOTAL BILIRUBIN ([…], time 14 day): 0.18 mg/dL
TOTAL PROTEIN ([…], time 14 day): 5.92 G/DL
URIC ACID ([…], time 14 day): 1.38 mg/dL
